This passage reports EC50 and CC50 results from patent publication US11083707B2, “Substituted indoline derivatives as dengue viral replication inhibitors” (JANSSEN PHARMACEUTICALS, INC., priority 2017, dated 2021).

One data set concerns DENV-2 16681 strain. Description: DENV-2 antiviral assay (eGFP fluorescence, Vero cells). The data set is classed as cell-based, Dengue virus. As to conditions: DENV-2 16681 eGFP, MOI 0.5, 3 days. The method, then: The antiviral activity of all the compounds of the invention was tested against the DENV-2 16681 strain which was labeled with enhanced green fluorescent protein (eGPF). The culture medium consists of minimal essential medium supplemented with 2% of heat-inactivated fetal calf serum, 0.04% gentamycin (50 mg/mL) and 2 mM of L-glutamine. Vero cells, obtained from ECACC, were suspended in culture medium and 25 μL was added to 384-well plates (2500 cells/well), which already contain the antiviral compounds. Typically, these plates contain a 5-fold serial dilution of 9 dilution steps of the test compound at 200 times the final concentration in 100% DMSO (200 nL). […] Finally, each plate contains wells which are assigned as virus controls (containing cells and virus in the absence of compound), cell controls (containing cells in the absence of virus and compound) and medium controls (containing medium in the absence of cells, virus and compounds). To the wells assigned as medium control, 25 μL of culture medium was added instead of Vero cells. Once the cells were added to the plates, the plates were incubated for 30 minutes at room temperature to allow the cells to distribute evenly within the wells. Next, the plates were incubated in a fully humidified incubator (37° C., 5% CO2) until the next day. Then, DENV-2 strain 16681, labeled with eGFP, was added at a multiplicity of infection (MOI) of 0.5. Therefore, 15 μL of virus suspension was added to all the wells containing test compound and to the wells assigned as virus control. In parallel, 15 μL of culture medium was added to the medium and cell controls. Next, the plates were incubated for 3 days in a fully humidified incubator (37° C., 5% CO2). At the day of the read out, the eGFP fluorescence was measured using an automated fluorescence microscope at 488 nm (blue laser). Using an in-house LIMS system, inhibition dose response curves for each compound were calculated and the half maximal effective concentration (EC50) was determined. Therefore, the percent inhibition (I) for every test concentration is calculated using the following formula: I=100*(ST-SCC)/(SVC-SCC), ST, SCC and SVC are the amount of eGFP signal in the test compound, cell control and virus control wells, respectively. The EC50 represents the concentration of a compound at which the virus replication is inhibited with 50%, as measured by a 50% reduction of the eGFP fluorescent intensity compared to the virus control. The EC50 is calculated using linear interpolation (Table 1).

Another data set can be described thus: in vitro. To be noted: African green monkey.
[1] abbreviates: Dengue virus, DENV2, Vero, 72 h.

pEC50: −log10 of the molar value.

A word on the pEC50: it is −log10 of the EC50, conventionally taken in molar units.

Turning to `COc1cc(NC(C(=O)N2CCc3ccc(C(F)(F)F)cc32)c2ccc(F)cc2OCCO)cc(-n2cncn2)c1` (single isomer, unassigned) [Compound 1A], the pEC50 with DENV-2 16681 strain was 6.00. The CC50 in “in vitro” amounted to 7700 nM.

Take `COc1cc(NC(C(=O)N2CCc3cc(OC)c(C(F)(F)F)cc32)c2ccc(F)cc2OCCO)cc(-n2cncn2)c1` (racemic) [Compound 2, 2-(4-fluoro-2-(2-hydroxyethoxy)phenyl)-2-((3-methoxy-5-(1H-1,2,4-triazol-1-yl)phenyl)amino)-1-(5-methoxy-6-(trifluoromethyl)indolin-1-yl)ethanone]: the negative logarithm of the EC50 (pEC50) in the data set on DENV-2 16681 strain (setting [1]) is 8.55. This molecule displayed a CC50 in “in vitro” of 13000 nM.

`COc1cc(NC(C(=O)N2CCc3ccc(C(F)(F)F)cc32)c2ccc(Cl)cc2OCCO)cc(-n2cncn2)c1` (single isomer, unassigned) [Compound 4A] gave a pEC50 with DENV-2 16681 strain of 5.92. The molecule further gave a CC50 in the data set “in vitro” of 7800 nM.

Consider `COc1cc(NC(C(=O)N2CCc3ccc(C(F)(F)F)cc32)c2ccc(Cl)cc2OCCCC(=O)O)cc(-n2cncn2)c1` (single isomer, unassigned) [Compound 11A], for which the pEC50 with DENV-2 16681 strain was 7.35. Also, the CC50 in the data set “in vitro” was found to be 11000 nM.

Consider `COc1cc(NC(C(=O)N2CCc3cc(F)c(C(F)(F)F)cc32)c2ccc(Cl)cc2OCCO)cc(-n2cncn2)c1` (racemic) [Compound 7, 2-(4-chloro-2-(2-hydroxyethoxy)phenyl)-1-(5-fluoro-6-(trifluoromethyl)indolin-1-yl)-2-((3-methoxy-5-(1H-1,2,4-triazol-1-yl)phenyl)amino)ethanone], for which the pEC50 with DENV-2 16681 strain (setting [1]) was 8.52. The same molecule yielded a CC50 in the data set “in vitro” of 10000 nM.

`COc1cc(NC(C(=O)N2CCc3ccc(OC(F)(F)F)cc32)c2ccc(Cl)cc2OCCO)cc(-n2cncn2)c1` (racemic) [Compound 6, 2-(4-chloro-2-(2-hydroxyethoxy)phenyl)-2-((3-methoxy-5-(1H-1,2,4-triazol-1-yl)phenyl)amino)-1-(6-(trifluoromethoxy)indolin-1-yl)ethanone] had a pEC50 in the data set on DENV-2 16681 strain (setting [1]) of 9.01. Besides, in “in vitro”, the CC50 came to 3300 nM.

In the data set on DENV-2 16681 strain, `COc1cc(NC(C(=O)N2CCc3cc(F)c(C(F)(F)F)cc32)c2ccc(Cl)cc2OCCO)cc(-n2cncn2)c1` (single isomer, unassigned) [Compound 7A] gave a pEC50 of 6.37. Further, the CC50 in “in vitro” came to 11000 nM.

Molecule `COc1cc(NC(C(=O)N2CCc3ccc(C(F)(F)F)cc32)c2ccc(F)cc2OCCO)cc(-n2cncn2)c1` (racemic) [Compound 1, 2-(4-fluoro-2-(2-hydroxyethoxy)phenyl)-2-((3-methoxy-5-(1H-1,2,4-triazol-1-yl)phenyl)amino)-1-(6-(trifluoromethyl)indolin-1-yl)ethanone] had a pEC50 in the data set with DENV-2 16681 strain (setting [1]) of 8.51. In the data set “in vitro”, this molecule displayed a CC50 of 12000 nM.

As to `COc1cc(NC(C(=O)N2CCc3cc(F)c(OC(F)(F)F)cc32)c2ccc(Cl)cc2OCCCC(=O)O)cc(-n2cncn2)c1` (racemic) [Compound 15, 4-(5-chloro-2-(2-(5-fluoro-6-(trifluoromethoxy)indolin-1-yl)-1-((3-methoxy-5-(1H-1,2,4-triazol-1-yl)phenyl)amino)-2-oxoethyl)phenoxy)butanoic acid], the pEC50 in the data set with DENV-2 16681 strain (setting [1]) is 9.66. Also, the CC50 in “in vitro” came out at 11000 nM.

In turn, `COc1cc(NC(C(=O)N2CCc3cc(OC)c(C(F)(F)F)cc32)c2ccc(F)cc2OCCO)cc(-n2cncn2)c1` (single isomer, unassigned) [Compound 2A] had a pEC50 with DENV-2 16681 strain of 6.57. This molecule registered a CC50 in “in vitro” of 12000 nM.

In the case of `COc1cc(NC(C(=O)N2CCc3ccc(OC(F)(F)F)cc32)c2ccc(Cl)cc2OCCC(C)(C)C(=O)O)cc(-n2cncn2)c1` (racemic) [Compound 14, 4-(5-chloro-2-(1-((3-methoxy-5-(1H-1,2,4-triazol-1-yl)phenyl)amino)-2-oxo-2-(6-(trifluoromethoxy)indolin-1-yl)ethyl)phenoxy)-2,2-dimethylbutanoic acid], the pEC50 in the data set on DENV-2 16681 strain (setting [1]) is 9.39. The same molecule yielded a CC50 in the data set “in vitro” of 10000 nM.

`COc1cc(NC(C(=O)N2CCc3ccc(OC(F)(F)F)cc32)c2ccc(F)cc2OCCO)cc(-n2cncn2)c1` (racemic) [Compound 3, 2-(4-fluoro-2-(2-hydroxyethoxy)phenyl)-2-((3-methoxy-5-(1H-1,2,4-triazol-1-yl)phenyl)amino)-1-(6-(trifluoromethoxy)indolin-1-yl)ethanone] showed a pEC50 with DENV-2 16681 strain (setting [1]) of 8.72. Also, the CC50 in “in vitro” was determined as 8500 nM.

For `COc1cc(NC(C(=O)N2CCc3cc(OC)c(OC(F)(F)F)cc32)c2ccc(Cl)cc2OCCO)cc(-n2cncn2)c1` (racemic) [Compound 8, 2-(4-chloro-2-(2-hydroxyethoxy)phenyl)-2-((3-methoxy-5-(1H-1,2,4-triazol-1-yl)phenyl)amino)-1-(5-methoxy-6-(trifluoromethoxy)indolin-1-yl)ethanone], the pEC50 with DENV-2 16681 strain (setting [1]) was 8.68. In the data set “in vitro”, the CC50 worked out at 9500 nM.

In turn, `COc1cc(NC(C(=O)N2CCc3c(C)cc(OC(F)(F)F)cc32)c2ccc(Cl)cc2OCCO)cc(-n2cncn2)c1` (racemic) [Compound 10, 2-(4-chloro-2-(2-hydroxyethoxy)phenyl)-2-((3-methoxy-5-(1H-1,2,4-triazol-1-yl)phenyl)amino)-1-(4-methyl-6-(trifluoromethoxy)indolin-1-yl)ethanone] showed a negative-log EC50 (pEC50) in the data set on DENV-2 16681 strain (setting [1]) of 9.46. This molecule also returned a CC50 in “in vitro” of 10000 nM.

On to `COc1cc(NC(C(=O)N2CCc3c(C)cc(OC(F)(F)F)cc32)c2ccc(Cl)cc2OCCO)cc(-n2cncn2)c1` (single isomer, unassigned) [Compound 10A], for which, in the data set on DENV-2 16681 strain, the pEC50 was 7.20. The CC50 in “in vitro” amounted to 10000 nM.

On to `COc1cc(NC(C(=O)N2CCc3cc(F)c(OC(F)(F)F)cc32)c2ccc(Cl)cc2OCCCC(=O)O)cc(-n2cncn2)c1` (single isomer, unassigned) [Compound 15A], for which the pEC50 with DENV-2 16681 strain was 8.28. Besides, the CC50 in “in vitro” is 10000 nM.

Regarding `COc1cc(NC(C(=O)N2CCc3ccc(OC(F)(F)F)cc32)c2ccc(Cl)cc2OCCC(C)(C)C(=O)O)cc(-n2cncn2)c1` (single isomer, unassigned) [Compound 14A], the pEC50 in the data set with DENV-2 16681 strain is 6.38. This molecule registered a CC50 in “in vitro” of 9100 nM.

In turn, `COc1cc(NC(C(=O)N2CCc3c(C)cc(OC(F)(F)F)cc32)c2ccc(Cl)cc2OCCCC(=O)O)cc(-n2cncn2)c1` (single isomer, unassigned) [Compound 16A] gave a pEC50 with DENV-2 16681 strain of 7.85. In “in vitro”, the CC50 stood at 11000 nM.

With `COc1cc(NC(C(=O)N2CCc3ccc(OC(F)(F)F)cc32)c2ccc(Cl)cc2OCCCC(=O)O)cc(-n2cncn2)c1` (racemic) [Compound 13, 4-(5-chloro-2-(1-((3-methoxy-5-(1H-1,2,4-triazol-1-yl)phenyl)amino)-2-oxo-2-(6-(trifluoromethoxy)indolin-1-yl)ethyl)phenoxy)butanoic acid], in the data set on DENV-2 16681 strain (setting [1]), the pEC50 is 9.64. Further, the CC50 in “in vitro” was determined as 11000 nM.

In turn, `COc1cc(NC(C(=O)N2CCc3cc(OC)c(C(F)(F)F)cc32)c2ccc(Cl)cc2OCCO)cc(-n2cncn2)c1` (single isomer, unassigned) [Compound 5A] showed a pEC50 in the data set with DENV-2 16681 strain of 7.38. The molecule also registered a CC50 in “in vitro” of 11000 nM.

For `COc1cc(NC(C(=O)N2CCc3ccc(OC(F)(F)F)cc32)c2ccc(F)cc2OCCO)cc(-n2cncn2)c1` (single isomer, unassigned) [Compound 3A], the pEC50 with DENV-2 16681 strain is 6.28. In the data set “in vitro”, this molecule registered a CC50 of 11000 nM.

In the data set with DENV-2 16681 strain (setting [1]), `COc1cc(NC(C(=O)N2CCc3cc(F)c(OC(F)(F)F)cc32)c2ccc(Cl)cc2OCCO)cc(-n2cncn2)c1` (racemic) [Compound 9, 2-(4-chloro-2-(2-hydroxyethoxy)phenyl)-1-(5-fluoro-6-(trifluoromethoxy)indolin-1-yl)-2-((3-methoxy-5-(1H-1,2,4-triazol-1-yl)phenyl)amino)ethanone] gave a pEC50 of 8.80. The same molecule displayed a CC50 in “in vitro” of 3900 nM.

In the data set on DENV-2 16681 strain (setting [1]), `COc1cc(NC(C(=O)N2CCc3ccc(C(F)(F)F)cc32)c2ccc(Cl)cc2OCCCC(=O)O)cc(-n2cncn2)c1` (racemic) [Compound 11, 4-(5-chloro-2-(1-((3-methoxy-5-(1H-1,2,4-triazol-1-yl)phenyl)amino)-2-oxo-2-(6-(trifluoromethyl)indolin-1-yl)ethyl)phenoxy)butanoic acid] gave a pEC50 of 9.51. In the data set “in vitro”, this molecule registered a CC50 of 15000 nM.

With `COc1cc(NC(C(=O)N2CCc3cc(OC)c(C(F)(F)F)cc32)c2ccc(Cl)cc2OCCO)cc(-n2cncn2)c1` (racemic) [Compound 5, 2-(4-chloro-2-(2-hydroxyethoxy)phenyl)-2-((3-methoxy-5-(1H-1,2,4-triazol-1-yl)phenyl)amino)-1-(5-methoxy-6-(trifluoromethyl)indolin-1-yl)ethanone], in the data set with DENV-2 16681 strain (setting [1]), the pEC50 is 9.09. The CC50 in the data set “in vitro” is 11000 nM.
